According to patent US9598441B2, “Therapeutic compounds and methods” (Wayne State University, priority 2011, dated 2017):

Tested on: MDA-MB-468 wild-type, vector and CARP-1 (Δ896-978) expressing cells
Test: MTT assay in stable HBC sublines expressing vector or CARP-1 (Δ896-978)
Type: cell-based, human
Conditions: for growth of wild-type, vector and CARP-1 (Δ896-978) expressing cells (MTT): 0.1 and 1.0 μg/ml ADR, or 5 and 10 μM CFM-4; for sensitivity of CARP-1 (Δ896-978) expressing cells to inhibition: versus wild-type or vector cells
From the text: Routine maintenance and culture of MDA-MB-231, MDA-MB-468, SKBR-3 (all lack ER and have mutant p53), MCF-7, T47D (both have ER and wild-type p53) HBC cells (Runnebaum, I. B., Nagarajan, M., Bowman, M., Soto, D., and Sukumar, S. (1991). Proc. Natl. Acad. Sci. USA 88, 10657-10661), human prostate cancer PC3 and LnCAP cells, HCT-116 human colon cancer, human pancreatic cancer PANC-1 and BxPC-3, Burkett lymphoma Raji, diffuse large B-cell lymphoma WSU-DLCL2, follicular lymphoma WSU-FSCCL cells, cervical cancer HeLa, human mesothelial Met5a, human pleural malignant mesothelioma (MPM), murine MPM AB12 cells (Wang, Y., Rishi, A. K., Puliyappadamba, V. T., Sharma, S., Yang, H., Tarca, A., Dou, Q. P., Lonardo, F., Ruckdeschel, J. C., Pass, H. I., Wali, A. (2010) Can. Chemother. Pharmacol. 66, 455-466), and the green monkey kidney Cos-7 cells was carried out essentially as described (Rishi, A. K., Zhang, L., Boyanapalli, M., Wali, A., Mohammad, R. M., Yu, Y., Fontana, J. A., Hatfield, J. S., Dawson, M. I., Majumdar, A. P. N., and Reichert, U. (2003) J. Biol. Chem. 278, 33422-33435, Rishi, A. K., Zhang, L., Yu, Y., Jiang, Y., Nautiyal, J., Wali, A., Fontana, J. A., Levi, E., and Majumdar, A. P. N. (2006) J. Biol. Chem. 281(19), 13188-98, Zhang, L., Levi, E., Majumder, P., Yu, Y., Aboukameel, A., Du, J., Xu, H., Mohammad, R. M., Hatfield, J. S., Wali, A., Adsay, V., Majumdar, A. P. N., and Rishi, A. K. (2007) Mol. Cancer Ther. 6(5), 1661-1672, Levi, L., Zhang, L., Aboukameel, A., Rishi, S., Mohammad, R. M., Polin, L., Hatfield, J. S., and Rishi, A. K. Can. Chemother. Pharmacol. (in Press). The immortalized, non-tumorigenic human breast epithelial MCF-10A have been described before (Miller, F. R. (2000). J. Mammary Gland Biol. Neoplasia 5, 379-391). MCF-7 cells that are resistant to adriamycin (MCF-7/Adr/Vp) or tamoxifen (MCF-7-TAM) were obtained from Drs. Douglas Ross (University of Maryland Baltimore) and Kaladhar Reddy (Pathology Department, Wayne State University, Detroit, Mich.), respectively, and were maintained essentially following methods described before (Doyle, L. A., Yang, W., Abruzzo, L. V., Krogmann, T., Gao, Y., Rishi, A. K., and Ross, D. D. (1998). Proc. Natl. Acad. Sci. (USA), 95, 15665-15670, Nabha, S., Glaros, S., Hong, M., Lykkesfeidt, A. E., Schiff, R., Osborne, C. K., Reddy, K. B. (2005). Oncogene, 24, 3166-3176). The stable sublines were generated by transfecting the MDA-MB-468 cells with the vector or the recombinant pcDNA3/CARP-1 (Δ896-978)-myc-His plasmid followed by selection in the presence of 800 μg/ml neomycin using described methods (Rishi, A. K., Zhang, L., Boyanapalli, M., Wali, A., Mohammad, R M, Yu, Y., Fontana, J. A., Hatfield, J. S., Dawson, M. I., Majumdar, A. P. N., and Reichert, U. (2003) J. Biol. Chem. 278, 33422-33435).
Logarithmically growing cells were either untreated or treated with different agents for various time periods. The cells were lysed to prepare protein extracts. IP was carried out by incubating approximately 1 mg of the protein lysate with appropriate antibodies, and the immunoprecipitates or cell lysates were then electrophoresed on 9-12% SDS-polyacrylamide gels, and transferred to nitrocellulose membranes. The membranes were subsequently probed with various antibodies to determine expression/presence of the corresponding proteins. The cell growth inhibition was assessed by using MTT assay. […]

Row | Structure (SMILES) | growth of wild-type, vector and CARP-1 (Δ896-978) expressing cells (MTT) | sensitivity of CARP-1 (Δ896-978) expressing cells to inhibition | loss of viability of CARP-1 (Δ896-978) cells versus wild-type or vector-transfected cells (10 μM dose)
1 | COc1cccc2c1C(=O)c1c(O)c3c(c(O)c1C2=O)C[C@@](O)(C(=O)CO)C[C@@H]3O[C@H]1C[C@H](N)[C@H](O)[C@H](C)O1 [ADR, adriamycin, reference compound] | suppressed growth | generally more sensitive | 
2 | O=C1N(Cc2ccccc2Cl)c2ccccc2C12NN=C(c1ccccc1)S2 (centres unmarked) [CFM-4, 1-(2-chlorobenzyl)-5′-phenyl-3′H-spiro[indoline-3,2′-[1,3,4]thiadiazol]-2-one] | suppressed growth | generally more sensitive | greater loss of viability
